Laboratory results: patent US20240158446A1, “CYCLIC COMPOUND HAVING SELECTIVE INHIBITORY ACTION ON KRAS OVER HRAS AND NRAS” (CHUGAI SEIYAKU KABUSHIKI KAISHA, priority 2021, published 2024)
Read-outs that look alike come from different tables or passages of the source. Where a SMILES comes first, the peptide text is derived from it. Bridges are numbered along the chain shown (N, C = ends). [ ]: non-standard residue; d: D form. The star is where a group is joined. hPhe(3-Cl-4-CF3) = N[C@@H](CCc1ccc(C(F)(F)F)c(Cl)c1)C(=O)O; NPrPhe(4-CF3) = CCCN[C@@H](Cc1ccc(C(F)(F)F)cc1)C(=O)O; NMeGly(cPent) = CN[C@H](C(=O)O)C1CCCC1; NMeD = CN[C@@H](CC(=O)O)C(=O)O; NMeL = CN[C@@H](CC(C)C)C(=O)O; Morpholide = C1CN(*)CCO1; Ac4c = NC1(C(=O)O)CCC1; NEtG = CCNCC(=O)O; Sar = CNCC(=O)O

Legend:
[1] = system: human lung cancer strain NCI-H441;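 note: cell proliferation inhibition after four days measured by CellTiter-Glo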
[2] = target: GDP-bound KRAS wild-type protein (Homo sapiens, UniProt P01116); test: Binding to KRAS by surface plasmon resonance (SPR), Single Cycle Kinetics
GDP-bound KRAS wild-type protein, sequence (P01116 whole entry): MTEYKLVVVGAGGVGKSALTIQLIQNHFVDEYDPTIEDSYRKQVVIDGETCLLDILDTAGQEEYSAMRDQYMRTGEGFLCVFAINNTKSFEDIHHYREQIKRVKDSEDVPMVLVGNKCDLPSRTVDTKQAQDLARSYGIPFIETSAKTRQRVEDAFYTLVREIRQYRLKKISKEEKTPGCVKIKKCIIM

[3] = target: GDP-bound HRAS wild-type protein (Homo sapiens, UniProt P01112); test: Binding to HRAS by surface plasmon resonance (SPR), Single Cycle Kinetics; conditions: for HRAS/KRAS (ratio of KD value for HRAS to KD value for KRAS): GDP-bound HRAS wild-type protein vs GDP-bound KRAS wild-type protein; for HRAS/KRAS (ratio of KD value with respect to GDP-bound HRAS wild-type protein to KD value with respect to KRAS): SPR KD ratio HRAS/KRAS, class symbols
GDP-bound HRAS wild-type protein, sequence (P01112 whole entry): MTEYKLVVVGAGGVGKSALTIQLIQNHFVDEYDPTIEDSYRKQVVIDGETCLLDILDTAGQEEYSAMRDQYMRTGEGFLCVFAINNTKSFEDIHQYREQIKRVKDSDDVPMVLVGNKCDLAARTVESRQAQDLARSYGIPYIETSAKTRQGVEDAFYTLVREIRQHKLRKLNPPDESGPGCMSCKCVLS

[4] = target: GDP-bound NRAS wild-type protein (Homo sapiens, UniProt P01111); test: Binding to NRAS by surface plasmon resonance (SPR), Single Cycle Kinetics; conditions: for NRAS/KRAS (ratio of KD value for NRAS to KD value for KRAS): GDP-bound NRAS wild-type protein vs GDP-bound KRAS wild-type protein; for NRAS/KRAS (ratio of KD value with respect to GDP-bound NRAS wild-type protein to KD value with respect to KRAS): SPR KD ratio NRAS/KRAS, class symbols
GDP-bound NRAS wild-type protein, sequence (P01111 whole entry): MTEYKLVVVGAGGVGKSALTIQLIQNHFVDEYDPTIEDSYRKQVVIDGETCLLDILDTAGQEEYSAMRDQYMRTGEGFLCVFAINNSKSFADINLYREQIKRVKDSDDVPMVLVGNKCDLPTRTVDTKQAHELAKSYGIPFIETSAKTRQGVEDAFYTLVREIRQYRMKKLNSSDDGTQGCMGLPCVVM

[5] = SPR, Single Cycle Kinetics, 1:1 binding model, GDP-bound KRAS wild-type protein, read-out: KRAS KD
[6] = SPR, Single Cycle Kinetics, GDP-bound KRAS wild-type protein, read-out: KRAS KD
[7] = SPR Single Cycle Kinetics, GDP-bound KRAS wild-type protein, 1:1 binding model, read-out: KRAS KD

For `CCO[C@@H]1C[C@H]2C(=O)NC3(CCC3)C(=O)N(C)[C@@H](C(CC)CC)C(=O)N(C)[C@H](C(=O)N(C)C)CC(=O)N(C)[C@@H](COC)C(=O)N[C@@H]([C@@H](C)CC)C(=O)N(C)CC(=O)N(C)[C@H]3C/C=C\CCN(C3=O)[C@@H](Cc3ccc(C(F)(F)F)cc3)C(=O)N(C)CC(=O)N[C@@H](CCc3ccc4sccc4c3)C(=O)N2C1` [PP1229], the IC50 [1] was 144 nM, the Kd [2, 5] was 1.3 nM and the “HRAS/KRAS (ratio of KD value for HRAS to KD value for KRAS)” value ([3]; SPR, KD ratio class) was “A (a compound having 10 or more and less than 20 is denoted as A)”. The “NRAS/KRAS (ratio of KD value for NRAS to KD value for KRAS)” value ([4]; SPR, KD ratio class) was “A (a compound having 10 or more and less than 20 is denoted as A)”.
In the case of `CCO[C@@H]1C[C@H]2C(=O)NC3(CCC3)C(=O)N(C)[C@@H](C3CCCC3)C(=O)N(C)[C@H](C(=O)N(C)C)CC(=O)N(C)[C@@H](CC3CCCC3)C(=O)N[C@@H]([C@@H](C)CC)C(=O)N(C)CC(=O)N(C)[C@H]3C/C=C\CCN(C3=O)[C@@H](Cc3ccc(C(F)(F)F)cc3)C(=O)N(C)CC(=O)N[C@@H](CCc3ccc(Cl)c(Cl)c3)C(=O)N2C1` [PP1254], the IC50 [1] is reported as 28.3 nM, the Kd [2, 5] is reported as 0.2 nM and the “HRAS/KRAS (ratio of KD value for HRAS to KD value for KRAS)” value ([3]; SPR, KD ratio class) is reported as “A (a compound having 10 or more and less than 20 is denoted as A)”. For the same compound, the “NRAS/KRAS (ratio of KD value for NRAS to KD value for KRAS)” value ([4]; SPR, KD ratio class) was “AA (a compound having 20 or more is denoted as AA)”.
With `CC[C@H](C)[C@@H]1NC(=O)[C@H](CC)N(C)C(=O)C[C@@H](C(=O)N(C)C)N(C)C(=O)[C@H](C2CCCC2)N(C)C(=O)C2(CCC2)NC(=O)[C@@H]2CCCCN2C(=O)[C@H](CCc2cc(F)c(C(F)(F)F)c(F)c2)NC(=O)CN(C)C(=O)[C@H](Cc2ccc(C(F)(F)F)cc2)N2CC/C=C\C[C@@H](C2=O)N(C)C(=O)CN(C)C1=O` [PP1136, (2S,8S,15S,21S,24S,28S,31S,37S,39Z)-21-cyclopentyl-8-[2-[3,5-difluoro-4-(trifluoromethyl)phenyl]ethyl]-28-ethyl-N,N,4,20,23,27,33,36-octamethyl-31-[(1S)-1-methylpropyl]-3,6,9,16,19,22,26,29,32,35,43-undecaoxo-2-[[4-(trifluoromethyl)phenyl]methyl]spiro[1,4,7,10,17,20,23,27,30,33,36-undecazatricyclo[35.5.1.0^10,1^5]tritetracont-39-ene-18,1′-cyclobutane]-24-carboxamide] the IC50 [1] was 193 nM, the Kd [2, 6] was 0.14 nM and the “HRAS/KRAS (ratio of KD value for HRAS to KD value for KRAS)” value ([3]; SPR) was “A (a compound having 10 or more and less than 20 is denoted as A)”. For the same compound, the “NRAS/KRAS (ratio of KD value for NRAS to KD value for KRAS)” value ([4]; SPR) was “A (a compound having 10 or more and less than 20 is denoted as A)”.
For `CCC[C@H]1C(=O)N[C@@H]([C@@H](C)CC)C(=O)N(C)CC(=O)N(C)[C@H]2C/C=C\CCN(C2=O)[C@@H](Cc2ccc(C)cc2)C(=O)N(C)CC(=O)N[C@@H](CCc2cc(F)c(C(F)(F)F)c(F)c2)C(=O)N2C[C@H](OCC)C[C@H]2C(=O)N(C)C2(CCC2)C(=O)N(C)[C@@H](C2CCCC2)C(=O)N(C)[C@H](C(=O)N2CCCCC2)CC(=O)N1C` [PP3119, (2S,8S,12R,14S,20S,23S,27S,30S,36S,38Z)-20-cyclopentyl-8-[2-[3,5-difluoro-4-(trifluoromethyl)phenyl]ethyl]-12-ethoxy-4,16,19,22,26,32,35-heptamethyl-30-[(1S)-1-methylpropyl]-23-(piperidine-1-carbonyl)-27-propyl-2-(p-tolylmethyl)spiro[1,4,7,10,16,19,22,26,29,32,35-undecazatricyclo[34.5.1.0^10,14]dotetracont-38-ene-17,1′-cyclobutane]-3,6,9,15,18,21,25,28,31,34,42-undecone], the IC50 ([1]; read-out: NCI-H441 cell proliferation inhibitory activity, 50% proliferation inhibitory concentration (IC50 value), NCI-H441, four days, CellTiter-Glo) was 3.5 nM, the Kd ([2]; SPR, Single Cycle Kinetics, 1:1 binding model, read-out: KD value with respect to GDP-bound KRAS wild-type protein) was 0.09 nM and the Kd [2, 6] was 0.09 nM. The “HRAS/KRAS (ratio of KD value for HRAS to KD value for KRAS)” value ([3]; SPR) was “A (a compound having 10 or more and less than 20 is denoted as A)”, the “ratio of the KD value with respect to GDP-bound HRAS wild-type protein to the KD value with respect to KRAS” value ([3]; SPR, KD(HRAS)/KD(KRAS)) was “A (a compound having 10 or more and less than 20 is denoted as A)” and the “NRAS/KRAS (ratio of KD value for NRAS to KD value for KRAS)” value ([4]; SPR) was “A (a compound having 10 or more and less than 20 is denoted as A)”. The “ratio of the KD value with respect to GDP-bound NRAS wild-type protein to the KD value with respect to KRAS” value ([4]; SPR, KD(NRAS)/KD(KRAS)) was “A (a compound having 10 or more and less than 20 is denoted as A)”.
In the case of `CCO[C@@H]1C[C@H]2C(=O)NC3(CCC3)C(=O)N(C)[C@@H](C(CC)CC)C(=O)N(C)[C@H](C(=O)N3CCCC3)CC(=O)N(C)[C@@H](C)C(=O)N[C@@H]([C@@H](C)CC)C(=O)N(C)CC(=O)N(C)[C@H]3C/C=C\CCN(C3=O)[C@@H](CC3CCC(F)(F)CC3)C(=O)N(C)CC(=O)N[C@@H](CCc3cc(F)c(C(F)(F)F)c(F)c3)C(=O)N2C1` [PP1436], the IC50 [1] is reported as 47.4 nM, the Kd [2, 5] is reported as 0.29 nM and the “HRAS/KRAS (ratio of KD value for HRAS to KD value for KRAS)” value ([3]; SPR, KD ratio class) is reported as “A (a compound having 10 or more and less than 20 is denoted as A)”. For the same compound, the “NRAS/KRAS (ratio of KD value for NRAS to KD value for KRAS)” value ([4]; SPR, KD ratio class) was “AA (a compound having 20 or more is denoted as AA)”.
`CCO[C@@H]1C[C@H]2C(=O)NC3(CCC3)C(=O)N(C)[C@@H](C3CCCC3)C(=O)N(C)[C@H](C(=O)N3CCOCC3)CC(=O)N(C)[C@@H](CC3CCCC3)C(=O)N[C@@H]([C@@H](C)CC)C(=O)N(C)CC(=O)N(C)[C@H]3C/C=C\CCN(C3=O)[C@@H](Cc3ccc(C)cc3)C(=O)N(C)CC(=O)N[C@@H](CCc3cc(F)c(C(F)(F)F)c(F)c3)C(=O)N2C1` [PP1394] was tested, and the IC50 [1] was 25.1 nM, the Kd [2, 5] was 0.24 nM and the “HRAS/KRAS (ratio of KD value for HRAS to KD value for KRAS)” value ([3]; SPR, KD ratio class) was “A (a compound having 10 or more and less than 20 is denoted as A)”. The “NRAS/KRAS (ratio of KD value for NRAS to KD value for KRAS)” value ([4]; SPR, KD ratio class) was “AA (a compound having 20 or more is denoted as AA)”.
`CCC[C@H]1C(=O)N[C@@H]([C@@H](C)CC)C(=O)N(C2CC2)CC(=O)N(C)[C@H]2C/C=C\CCN(C2=O)[C@@H](Cc2ccc(C)cc2)C(=O)N(C)CC(=O)N[C@@H](CCc2ccc(Cl)c(Cl)c2)C(=O)N2C[C@H](OCC)C[C@H]2C(=O)NC2(CC(C)(C)C2)C(=O)N(C)[C@@H](CC2CCC2)C(=O)N(C)[C@H](C(=O)N(C)C)CC(=O)N1C` [PP2761] was tested, and the IC50 [1] was 68.4 nM, the Kd [2, 7] was 2.8 nM and the “HRAS/KRAS (ratio of KD value with respect to GDP-bound HRAS wild-type protein to KD value with respect to KRAS)” value [3] was “A (a compound having 10 or more and less than 20 is denoted as A)”. The “NRAS/KRAS (ratio of KD value with respect to GDP-bound NRAS wild-type protein to KD value with respect to KRAS)” value [4] was “A (a compound having 10 or more and less than 20 is denoted as A)”.
For `CCO[C@@H]1C[C@H]2C(=O)NC3(CC(C)(C)C3)C(=O)N(C)[C@@H](CC(C)(C)C)C(=O)N(C)[C@H](C(=O)N(C)C)CC(=O)N(C)[C@@H](COC)C(=O)N[C@@H]([C@@H](C)CC)C(=O)N(C3CC3)CC(=O)N(C)[C@H]3C/C=C\CCN(C3=O)[C@@H](Cc3ccc(C(F)(F)F)cc3)C(=O)N(C)CC(=O)N[C@@H](CCc3ccc(C(F)(F)F)c(OC)c3)C(=O)N2C1` [PP2748], the IC50 [1] was 7.1 nM, the Kd [2, 7] was 0.2 nM and the “HRAS/KRAS (ratio of KD value with respect to GDP-bound HRAS wild-type protein to KD value with respect to KRAS)” value [3] was “A (a compound having 10 or more and less than 20 is denoted as A)”. The “NRAS/KRAS (ratio of KD value with respect to GDP-bound NRAS wild-type protein to KD value with respect to KRAS)” value [4] was “A (a compound having 10 or more and less than 20 is denoted as A)”.
For `CCCN1C(=O)CN(C)C(=O)CN(CC)C(=O)[C@H]([C@@H](C)CC)NC(=O)[C@H](CC(C)C)N(C)C(=O)C[C@@H](C(=O)N2CCOCC2)N(C)C(=O)[C@H](C2CCCC2)N(C)C(=O)C2(CCC2)NC(=O)[C@@H]2CCCN2C(=O)[C@H](CCc2ccc(C(F)(F)F)c(Cl)c2)NC(=O)CN(C)C(=O)[C@@H]1Cc1ccc(C(F)(F)F)cc1` [PP0398] ([NMeL]I[NEtG][Sar][NPrPhe(4-CF3)][Sar][hPhe(3-Cl-4-CF3)]P[Ac4c][NMeGly(cPent)][NMeD]-Morpholide; lactam N-11), the IC50 [1] was 3.6 nM, the Kd [2, 7] was 0.48 nM and the “HRAS/KRAS (ratio of KD value for HRAS to KD value for KRAS)” value ([3]; SPR) was “C (A compound having a KD ratio of 0.1 or more and less than 3 is denoted as C)”. For the same compound, the “NRAS/KRAS (ratio of KD value for NRAS to KD value for KRAS)” value ([4]; SPR) was “B (a compound having 3 or more and less than 10 is denoted as B)”.
